Measurements from patent US8809367B2, “1-1-Oxo-1,2,3,4-tetrahydroisoquinolin-7-yl)urea derivatives as N-formyl peptide receptor like-1 (FPRL-1) receptor modulators” (Allergan, Inc., priority 2011, dated 2014).

Target: T1, FPRL-1 (Homo sapiens, UniProt P25090)
T1 construct: expressed in transfected cells
T1 sequence (P25090 1-351): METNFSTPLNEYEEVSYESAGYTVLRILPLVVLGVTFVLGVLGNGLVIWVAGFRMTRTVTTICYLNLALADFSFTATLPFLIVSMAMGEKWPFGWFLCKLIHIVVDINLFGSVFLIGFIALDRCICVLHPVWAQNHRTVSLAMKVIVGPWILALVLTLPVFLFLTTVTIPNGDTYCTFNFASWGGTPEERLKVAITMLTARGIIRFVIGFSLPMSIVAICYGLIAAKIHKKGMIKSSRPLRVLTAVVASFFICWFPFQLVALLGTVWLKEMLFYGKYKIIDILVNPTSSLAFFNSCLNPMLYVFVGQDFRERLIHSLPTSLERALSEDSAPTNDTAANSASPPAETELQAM
Test: compound-induced calcium activity on FLIPR Tetra in CHO-Ga16 cells stably expressing FPRL1
Assay type: cell-based
Settings: for FPRL-1 Ga16-CHO (eff): efficacy value in brackets under EC50; for EC50: tested at 0.61 to 10,000 nM
Experimental: CHO-Ga16 cells stably expressing FPRL1 were cultured in (F12, 10% FBS, 1% PSA, 400 μg/ml geneticin and 50 μg/ml hygromycin) and HEK-Gqi5 cells stable expressing FPR1 were cultured in (DMEM high glucose, 10% FBS, 1% PSA, 400 μg/ml geneticin and 50 μg/ml hygromycin). In general, the day before the experiment, 18,000 cells/well were plated in a 384-well clear bottom poly-d-lysine coated plate. The following day the screening compound-induced calcium activity was assayed on the FLIPR^Tetra. The drug plates were prepared in 384-well microplates using the EP3 and the MultiPROBE robotic liquid handling systems. Compounds were tested at concentrations ranging from 0.61 to 10,000 nM. Results are expressed as EC50 (nM) and efficacy values.

Row | FPRL-1 Ga16-CHO (eff) | EC50 [µM] | SMILES
1 | (0.93) | 0.0118 | C[S+]([O-])c1ccc(NC(=O)Nc2ccc3c(c2)C(=O)N(CCc2c[nH]cn2)C(c2ccc(F)cn2)C3)cc1 (stereo not drawn) [Compound 31, 1-{3-(5-fluoropyridin-2-yl)-2-[2-(1H-imidazol-4-yl)ethyl]-1-oxo-1,2,3,4-tetrahydroisoquinolin-7-yl}-3-[4-(methylsulfinyl)phenyl]urea]
2 | (1.0) | 0.0105 | CS(=O)(=O)c1ccc(NC(=O)Nc2ccc3c(c2)C(=O)N(CCc2c[nH]cn2)C(c2ccc(F)cn2)C3)cc1 (stereo not drawn) [Compound 32, 1-{3-(5-fluoropyridin-2-yl)-2-[2-(1H-imidazol-4-yl)ethyl]-1-oxo-1,2,3,4-tetrahydroisoquinolin-7-yl}-3-[4-(methylsulfonyl)phenyl]urea]
3 | (0.99) | 0.0095 | CS(=O)(=O)c1ccc(NC(=O)Nc2ccc3c(c2)C(=O)N(CCc2c[nH]cn2)C(c2ccc(Cl)cn2)C3)cc1 (stereo not drawn) [Compound 34, 1-{3-(5-chloropyridin-2-yl)-2-[2-(1H-imidazol-4-yl)ethyl]-1-oxo-1,2,3,4-tetrahydroisoquinolin-7-yl}-3-[4-(methylsulfonyl)phenyl]urea]
